Assay [1] concerns the target T1, SERCA2a (sarco/endoplasmic reticulum calcium ATPase) (Canis lupus, UniProt O46674). Briefly: live-cell intramolecular FRET lifetime dose-response. The format is cell-based.
Assay [2] concerns the target T1, SERCA2a (sarco/endoplasmic reticulum calcium ATPase). The assay is described as above. It is filed as cell-based. The source holds these as a separate data set.

Each structure is given as a SMILES string.

The values that follow come from paper PMC4013825 (Journal of biomolecular screening, 2014).

T1 sequence (O46674 whole entry): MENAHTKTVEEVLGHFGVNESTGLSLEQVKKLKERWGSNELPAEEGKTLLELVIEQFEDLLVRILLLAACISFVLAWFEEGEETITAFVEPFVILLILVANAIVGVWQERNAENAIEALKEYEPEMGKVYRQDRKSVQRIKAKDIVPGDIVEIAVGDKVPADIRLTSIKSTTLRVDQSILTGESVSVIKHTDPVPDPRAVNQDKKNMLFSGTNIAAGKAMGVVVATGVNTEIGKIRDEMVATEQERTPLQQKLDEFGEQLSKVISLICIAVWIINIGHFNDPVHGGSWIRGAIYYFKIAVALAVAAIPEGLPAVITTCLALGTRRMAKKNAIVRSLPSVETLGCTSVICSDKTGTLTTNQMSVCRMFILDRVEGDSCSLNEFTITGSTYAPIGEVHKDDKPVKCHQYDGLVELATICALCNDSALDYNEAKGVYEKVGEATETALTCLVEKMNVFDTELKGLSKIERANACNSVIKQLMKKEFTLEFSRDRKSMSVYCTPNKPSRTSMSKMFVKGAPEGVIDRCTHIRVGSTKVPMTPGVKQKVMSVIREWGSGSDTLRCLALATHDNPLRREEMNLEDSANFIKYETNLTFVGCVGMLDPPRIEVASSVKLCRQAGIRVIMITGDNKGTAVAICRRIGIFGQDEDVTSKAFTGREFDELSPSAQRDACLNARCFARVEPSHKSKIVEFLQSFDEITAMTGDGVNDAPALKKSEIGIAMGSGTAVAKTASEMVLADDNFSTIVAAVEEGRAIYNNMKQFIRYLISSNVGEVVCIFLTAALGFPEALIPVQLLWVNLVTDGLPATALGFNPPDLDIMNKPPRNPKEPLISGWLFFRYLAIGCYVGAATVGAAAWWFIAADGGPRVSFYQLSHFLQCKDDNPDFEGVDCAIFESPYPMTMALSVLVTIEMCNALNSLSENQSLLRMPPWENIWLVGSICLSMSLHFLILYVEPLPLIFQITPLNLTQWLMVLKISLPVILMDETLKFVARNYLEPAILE

Turning to `C/C=C(/C)C(=O)O[C@H]1C(C)=C2[C@H]([C@@H]1OC(=O)CCCCCCC)[C@@](C)(OC(C)=O)C[C@H](OC(=O)CCC)[C@@]1(O)[C@H]2OC(=O)[C@@]1(C)O` [TG, thapsigargin], the “live-cell intramolecular FRET lifetime dose-response; ATPase inhibition in pig c” value in assay [1] is listed as 7.5 nM.

For the molecule `CC(=O)C1=C(O)[C@@H]2[C@H]3c4c[nH]c5cccc(c45)C[C@H]3C(C)(C)N2C1=O` [CPA, cyclopiazonic acid], the Kd in assay [2] was ~40 nM.
